Source: patent US10272056B2, “Treatment for mitochondrial diseases” (The George Washington University a Congressionally …, priority 2015, dated 2019)

Key:
[1] = test system: healthy and MELAS fibroblasts; assay: Dose-dependent studies for optimal safe concentrations; type: cell-based, human; details: three days of treatment
Source text: Experimental approaches. Five distinct molecular tools were used to investigate mitochondrial biogenesis: 1) the mitochondrial-specific dyes, MitoTracker® Green (MTG) and MitoTracker® Red (MTR); 2) the mito-GFP or mito-dsRed vector to fluorescently label mitochondria; 3) antibodies against mtDNA, COXVα, or SOD2; 4) the fluorescent PicoGreen® dye labeling mtDNA; and 5) quantitative PCR to determine mtDNA copy number.
Butyrates rescue the mitochondrial mass, morphology, networking, membrane potential, and cellular ATP levels in MELAS fibroblasts. Skin fibroblasts from two MELAS patients and from a healthy subject as a control were used. Dose-dependent analyses of butyrates to determine their best concentrations for eliciting an optimal mitochondrial response without cellular toxicity was performed. Healthy and MELAS fibroblasts were treated with PBS, NaBt (2.5 mM), TBN (1.5 mM), or AN9 (300 μM) for three days before labeling with the MTG dye for live cell confocal analysis.

HDAC1-3 enzymes = details: via the HDAC1-3 enzymes; cited from earlier work
[2] = test system: E17.5 hippocampal neurons; assay: Cellular viability of neurons exposed to NaBt; type: cell-based; details: 2 mM NaBt
[3] = test system: mouse models of neurodegenerative diseases and ischemia/stroke; details: in vivo; cited from earlier work
PC12-ND6 cells [4] = assay: Cell viability by live-cell confocal microscopy (Nuclear-ID stain); type: cell-based; details: 5 mM NaBt, three days
Source text: (§1) FIG. 4A-4E are images from microscopy and graphs showing NaBt dose-dependent acetylation and cellular toxicity in PC12-ND6 cells and embryonic E17.5 hippocampal neurons. (A) Confocal micrographs of PC12-ND6 cells (referred to as ND6) grown in the absence or presence of NaBt for three days and labeled with an anti-acetylated Lys antibody (AcLys; green). Scale bar represents 10 μm. […] Results are expressed as relative fluorescence intensity±S.D. (n=250 cells per NaBt concentration; * p=0.0001). (C) Effect of NaBt on PC12-ND6 cell viability. […] Mean±SEM (n=250 cells for each experimental condition; * p=0.0001). (D) Confocal micrographs of NaBt dose-dependent acetylation in E17.5 hippocampal neurons (AcLys; green). Scale bar represents 10 μm.
(§2) Sodium butyrate increases protein acetylation in a dose-dependent manner without inducing cellular toxicity. A dose response analysis was performed to determine the optimal concentration of sodium butyrate (NaBt) for inducing maximal acetylation levels with minimal cellular toxicity. PC12-ND6 cells were treated with different concentrations of NaBt (2 mM, 5 mM, and 10 mM) for three days before assessing the degree of acetylated lysine residues by immunocytochemistry and cell viability by live-cell confocal microscopy using the Nuclear-ID™ stain.

PC12-ND6 cells [5] = assay: NGF (100 ng/ml)-mediated neurite outgrowth after chloramphenicol; type: cell-based
Source text: FIG. 15A-15C are images from microscopy and a graph showing that Pre-treatment of PC12-ND6 cells negates the inhibitory effect of chloramphenicol on NGF-mediated neuronal differentiation. (A) Confocal micrographs of untreated and Cm-treated PC12-ND6 cells transfected with the vector mito-GFP and exposed to NGF. Scale bar represents 20 μm. (B) Confocal micrographs of NaBt pre-treated PC12-ND6 cells transfected with the vector mito-GFP and exposed to chloramphenicol prior to NGF treatment. Scale bar represents 20 μm. (C) Graph of average total neurite length. Mean±SEM (n=50 cells; compared to untreated PC12-ND6 cells *p=0.0001; compared to non-NaBt-treated PC12-ND6 cells with corresponding Cm concentration **p=0.0001).
Based on the results that NaBt endows PC12-ND6 cells with increased mitochondrial mass through biogenesis, resulting in accelerated neuronal differentiation, it was examined whether exposure to NaBt for three days could confer protection to chloramphenicol-mediated inhibition of neuronal differentiation upon NGF signaling.

[6] = test system: E17.5 hippocampal progenitor cells; assay: Neuronal differentiation to stage 3 (β-III tubulin immunostaining); type: cell-based; details: NaBt 2 mM at 1DIV, read at 3DIV, no glial feeder layer; untreated 20%
Source text: FIG. 12A-12B are images from microscopy and a graph showing that NaBt concomitantly increases the mitochondrial biomass of E17.5 hippocampal progenitor cells and their neuronal differentiation. (A) High-resolution tile-stacked confocal micrographs of untreated and NaBt-treated E17.5 hippocampal neurons labeled with β-III tubulin (red) and nuclear counterstain DAPI (blue) at 3DIV with insets showing high magnification of the neuritic network. Scale bar represents 20 μm. (B) Graph of percent of β-III tubulin^+ cells having reached the neuronal stage 3. Mean±S.D. (n=250 cells for each condition; *p=0.0001).
Sodium butyrate-mediated increase in mitochondrial mass correlates with accelerated and enhanced neuronal differentiation of hippocampal progenitor cells. Since broad spectrum HDACis induce neuronal differentiation of adult neural progenitors (reviewed by Lee and Lee, 2010), it was assessed whether increase in mitochondrial mass upon NaBt exposure could accelerate the timing of the neuronal developmental stages of cultured E17.5 hippocampal progenitor cells in the absence of astroglial trophic support. To test this hypothesis, the well-defined chronology of the distinct phenotypic differentiation stages of cultured embryonic hippocampal cells was relied on. […] At 3DIV, cells were immunostained for the pan-neuronal marker β-III tubulin to quantify the percent of cells at stage 3.

PC12-ND6 cells [7] = assay: NaBt dose-dependent acetylation of nuclear proteins (anti-acetylated Lys immunocytochemistry); type: cell-based; details: three days, 2, 5 and 10 mM tested
Source text: as §1, §2

For `CCCC(=O)[O-].[Na+]` [NaBt, sodium butyrate], the “optimal safe concentration for eliciting maximal mitochondrial biogenesis without cellular toxicity” value [1] is listed as 2.5 mM, the “subset of genes targeted” value (HDAC1-3 enzymes) is listed as 2-5% and the cellular viability [2] is listed as “without affecting cellular viability”. For the same compound, the “effects in mouse models” value [3] was “stimulates neurogenesis, enhances synaptic plasticity and memory, while preventing neuronal death”, the cell death (PC12-ND6 cells [4]) was “negligible cell death” and the “mitochondrial density in processes” value (PC12-ND6 cells [5]; NaBt pre-treated, 60 μM chloramphenicol) was “retained a high mitochondrial density”. For the same compound, the “total neurite length with NaBt pre-treatment” value (PC12-ND6 cells [5]; NaBt three days, highest concentration of chloramphenicol, NGF) was “remained unaffected”, the “percent of neurons advanced to stage 3” value [6] was 90% and the “NaBt concentration showing maximal acetylation levels of nuclear proteins” value (PC12-ND6 cells [7]) was 5 mM.
